The values that follow come from patent publication US12209102B2, “Heterocyclic compounds and uses thereof” (Kumquat Biosciences Inc., priority 2022, dated 2025).

The target in one experiment is T1, K-Ras G12D (Homo sapiens, UniProt P01116, G12D).
T1 construct: made in house; host or cells: E. coli BL21 (DE3)
The experiment is described as follows: HTRF resonance energy transfer assay, K-Ras G12D / SOS1 interaction. The settings on record: HTRF assay of Example 5; read-out: IC50 against K-Ras G12D. The class given is biochemical. The procedure, abridged: (§1)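 Buffer about 5 mM HEPES pH 7.4 with ~150 mM NaCl, ~1 mM DTT, 0.05% BSA, 0.0025% (v/v) Igepal. Protein constructs used at molarity matching the IC50 range studied (e.g. ~500 nM). FRET between tagged K-Ras and hSOS1 measured after short incubation.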
A general note: Time-resolved FRET reads energy transfer from a long-lived donor to a nearby acceptor.

Another experiment addresses T2, K-Ras WT (Homo sapiens, UniProt P01116).
T2 construct: made in house; host or cells: E. coli BL21 (DE3)
In words: HTRF resonance energy transfer assay, K-Ras WT / SOS1 interaction. The class given is biochemical. The settings on record: HTRF assay of Example 5; read-out: IC50 against K-Ras WT. A digest of the protocol:
as §1

The next experiment concerns SW620 cells. In words: Ras cellular assay, growth of cells with K-Ras G12V mutation (CellTiter-Glo). The experiment is classed as cell-based. The settings on record: Homo sapiens, SW-620; cell growth, Example 9, G12V mutation; read-out: IC50 against SW620 cells. The procedure, abridged:
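IC50 values came from a four-parameter fit of CellTiter-Glo viability, read roughly 6 days after dosing with e.g. a 10-point threefold dilution series. G12V-mutant SW620 cells (e.g. 800 per well) had been plated the previous day in RPMI-1640/10% heat-inactivated FBS, on tissue culture-treated or ultra-low attachment plates.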
On the technique in general: ATP-based viability assays read luminescence as a measure of living cells.

Another experiment has as its system A549 cells. In words: Ras cellular assay, growth of cells with K-Ras G12S mutation (CellTiter-Glo). To be noted: Homo sapiens, cell growth, Example 9, G12S mutation, read-out: IC50 against A549 cells. The class given is cell-based. The procedure, abridged:
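Growth inhibition IC50 values come from four-parameter fits of CellTiter-Glo luminescence, read about 6 days after compound addition. G12S-mutant A549 cells (e.g. 800/well, RPMI-1640 + 10% heat-inactivated FBS) were plated in tissue-culture-treated or ultra-low-attachment 384-well format. Dosing began the following day with serial dilutions, e.g. 10 points, 3-fold.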

A further experiment deals with T3, K-Ras G12S (Homo sapiens, UniProt P01116, G12S).
T3 construct: made in house; host or cells: E. coli BL21 (DE3)
In words: HTRF resonance energy transfer assay, K-Ras G12S / SOS1 interaction. To be noted: HTRF assay of Example 5; read-out: IC50 against K-Ras G12S. The experiment is classed as biochemical. A digest of the protocol: as §1

A further experiment has as its target T4, K-Ras G12V (Homo sapiens, UniProt P01116, G12V).
T4 construct: made in house; host or cells: E. coli BL21 (DE3)
The experiment is described as follows: HTRF resonance energy transfer assay, K-Ras G12V / SOS1 interaction. The class given is biochemical. The settings on record: HTRF assay of Example 5; read-out: IC50 against K-Ras G12V. The procedure, abridged:
as §1

SMILES strings stand for the structures. A value given as a limit tells only on which side of the number the result lay.

T2 sequence (P01116 1-188 isoform P01116-2): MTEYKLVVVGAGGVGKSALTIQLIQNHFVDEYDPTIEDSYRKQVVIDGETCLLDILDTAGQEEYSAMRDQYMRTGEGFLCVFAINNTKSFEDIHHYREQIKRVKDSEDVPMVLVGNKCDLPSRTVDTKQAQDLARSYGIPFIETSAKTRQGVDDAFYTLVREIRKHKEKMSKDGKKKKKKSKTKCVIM
T1 sequence (P01116 1-188 isoform P01116-2 G12D): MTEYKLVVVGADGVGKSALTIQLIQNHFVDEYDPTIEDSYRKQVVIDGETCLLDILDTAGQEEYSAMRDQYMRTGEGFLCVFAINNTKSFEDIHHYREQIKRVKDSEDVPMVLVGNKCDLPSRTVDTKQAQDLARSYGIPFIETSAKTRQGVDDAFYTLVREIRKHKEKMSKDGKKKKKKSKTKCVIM
T3 sequence (P01116 1-188 isoform P01116-2 G12S): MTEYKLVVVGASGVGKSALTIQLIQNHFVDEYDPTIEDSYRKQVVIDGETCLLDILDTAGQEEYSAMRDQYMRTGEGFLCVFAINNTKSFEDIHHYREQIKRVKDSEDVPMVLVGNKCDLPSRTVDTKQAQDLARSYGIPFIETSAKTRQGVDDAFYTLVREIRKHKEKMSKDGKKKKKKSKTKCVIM
T4 sequence (P01116 1-188 isoform P01116-2 G12V): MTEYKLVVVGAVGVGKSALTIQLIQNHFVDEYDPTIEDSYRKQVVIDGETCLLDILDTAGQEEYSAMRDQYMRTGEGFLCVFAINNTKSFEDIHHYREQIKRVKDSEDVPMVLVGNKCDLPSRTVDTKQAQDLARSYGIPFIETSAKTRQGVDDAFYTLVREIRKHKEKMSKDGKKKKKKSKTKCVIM

The IC50 is the concentration needed to halve the response being measured. For `C[C@H]1CN([C@@H]2CCOC2)c2nc(OC[C@@]34CCCN3C[C@H](F)C4)nc3c(F)c(-c4ccc(F)c5sc(N)c(C#N)c45)c(Cl)c(c23)O1` [Compound 958, 2-amino-4-((6S)-8-chloro-10-fluoro-2-(((2R,7aS)-2-fluorotetrahydro-1H-pyrrolizin-7a(5H)-yl)methoxy)-6-methyl-4-((R)-tetrahydrofuran-3-yl)-5,6-dihydro-4H-[1,4]oxazepino[5,6,7-de]quinazolin-9-yl)-7-fluorobenzo[b]thiophene-3-carbonitrile], the IC50 is under 100 nM on K-Ras G12D; under 100 nM at K-Ras WT; under 5000 nM in the experiment on SW620 cells; under 5000 nM with A549 cells; under 100 nM on K-Ras G12S; under 100 nM on K-Ras G12V.

Regarding `N#Cc1c(N)sc2c(F)ccc(-c3c(Cl)c4c5c(nc(OC[C@@]67CCCN6C[C@H](F)C7)nc5c3F)N(CC3(C#N)CCC3)CCO4)c12` [Compound 963, 2-amino-4-(8-chloro-4-((1-cyanocyclobutyl)methyl)-10-fluoro-2-(((2R,7aS)-2-fluorotetrahydro-1H-pyrrolizin-7a(5H)-yl)methoxy)-5,6-dihydro-4H-[1,4]oxazepino[5,6,7-de]quinazolin-9-yl)-7-fluorobenzo[b]thiophene-3-carbonitrile], the IC50 at K-Ras G12D is under 100 nM; at K-Ras WT, under 100 nM; in the experiment with SW620 cells, under 5000 nM; in the experiment on A549 cells, under 5000 nM; at K-Ras G12S, under 100 nM; at K-Ras G12V, under 100 nM.

On to `N#Cc1c(N)sc2c(F)ccc(-c3c(Cl)c4c5c(nc(OC[C@@]67CCCN6C[C@H](F)C7)nc5c3F)N(C3CCN(C(=O)C(F)F)CC3)CCO4)c12` [Compound 971, 2-amino-4-(8-chloro-4-(1-(2,2-difluoroacetyl)piperidin-4-yl)-10-fluoro-2-(((2R,7aS)-2-fluorotetrahydro-1H-pyrrolizin-7a(5H)-yl)methoxy)-5,6-dihydro-4H-[1,4]oxazepino[5,6,7-de]quinazolin-9-yl)-7-fluorobenzo[b]thiophene-3-carbonitrile], for which the IC50 on K-Ras G12D is under 100 nM; on K-Ras WT it was under 100 nM; in the experiment on SW620 cells it was under 5000 nM; in the experiment with A549 cells it was under 5000 nM; at K-Ras G12S it was under 100 nM; on K-Ras G12V, under 100 nM.

With `CC(COC(F)F)N1CCOc2c(Cl)c(-c3ccc(F)c4sc(N)c(C#N)c34)c(F)c3nc(OC[C@@]45CCCN4C[C@H](F)C5)nc1c23` (stereo partly drawn) [Compound 973, 2-amino-4-(8-chloro-4-(1-(difluoromethoxy)propan-2-yl)-10-fluoro-2-(((2R,7aS)-2-fluorotetrahydro-1H-pyrrolizin-7a(5H)-yl)methoxy)-5,6-dihydro-4H-[1,4]oxazepino[5,6,7-de]quinazolin-9-yl)-7-fluorobenzo[b]thiophene-3-carbonitrile], the IC50 on K-Ras G12D is under 100 nM; at K-Ras WT, under 100 nM; in the experiment on SW620 cells it was under 5000 nM; with A549 cells, under 5000 nM; at K-Ras G12S it was under 100 nM; at K-Ras G12V, under 100 nM.

Regarding `N#Cc1c(N)sc2c(F)ccc(-c3c(Cl)c4c5c(nc(OC[C@@]67CCCN6C[C@H](F)C7)nc5c3F)N(C3CC35CNC5)CCO4)c12` (stereo partly drawn) [Compound 990, 2-amino-4-(8-chloro-10-fluoro-2-(((2R,7aS)-2-fluorotetrahydro-1H-pyrrolizin-7a(5H)-yl)methoxy)-4-(5-azaspiro[2.3]hexan-1-yl)-5,6-dihydro-4H-[1,4]oxazepino[5,6,7-de]quinazolin-9-yl)-7-fluorobenzo[b]thiophene-3-carbonitrile], the IC50 is under 100 nM at K-Ras G12D; under 100 nM on K-Ras WT; under 5000 nM in the experiment with SW620 cells; under 5000 nM in the experiment on A549 cells; under 100 nM on K-Ras G12S; under 100 nM at K-Ras G12V.

With `C[C@H]1COc2c(Cl)c(-c3ccc(F)c4sc(N)c(C#N)c34)c(F)c3nc(OC[C@@]45CCCN4C[C@H](F)C5)nc(c23)N1C1CCN(C(=O)C2CC2C#N)CC1` (stereo partly drawn) [Compound 995, 2-amino-4-((5S)-8-chloro-4-(1-(2-cyanocyclopropane-1-carbonyl)piperidin-4-yl)-10-fluoro-2-(((2R,7aS)-2-fluorotetrahydro-1H-pyrrolizin-7a(5H)-yl)methoxy)-5-methyl-5,6-dihydro-4H-[1,4]oxazepino[5,6,7-de]quinazolin-9-yl)-7-fluorobenzo[b]thiophene-3-carbonitrile], the IC50 on K-Ras G12D was under 100 nM; at K-Ras WT, under 100 nM; in the experiment on SW620 cells it was under 5000 nM; in the experiment with A549 cells it was under 5000 nM; at K-Ras G12S it was under 100 nM; on K-Ras G12V, under 100 nM.

Consider `N#Cc1c(N)sc2c(F)ccc(-c3c(Cl)c4c5c(nc(OC[C@@]67CCCN6C[C@H](F)C7)nc5c3F)N(C3CCC5(C3)CN(C(=O)C3CC3)C5)CCO4)c12` (stereo partly drawn) [Compound 1011, 2-amino-4-(8-chloro-4-(2-(cyclopropanecarbonyl)-2-azaspiro[3.4]octan-6-yl)-10-fluoro-2-(((2R,7aS)-2-fluorotetrahydro-1H-pyrrolizin-7a(5H)-yl)methoxy)-5,6-dihydro-4H-[1,4]oxazepino[5,6,7-de]quinazolin-9-yl)-7-fluorobenzo[b]thiophene-3-carbonitrile], for which the IC50 is under 100 nM on K-Ras G12D; under 100 nM at K-Ras WT; under 5000 nM in the experiment with SW620 cells; under 5000 nM in the experiment with A549 cells; under 100 nM at K-Ras G12S; under 100 nM at K-Ras G12V.

Turning to `C[C@H](Oc1nc2c3c(c(Cl)c(-c4ccc(F)c5sc(N)c(C#N)c45)c(F)c3n1)OCCN2C1CCN(C(=O)c2ccnn2C)CC1)[C@@H]1CCCN1C` [Compound 1012, 2-amino-4-(8-chloro-10-fluoro-4-(1-(1-methyl-1H-pyrazole-5-carbonyl)piperidin-4-yl)-2-((S)-1-((S)-1-methylpyrrolidin-2-yl)ethoxy)-5,6-dihydro-4H-[1,4]oxazepino[5,6,7-de]quinazolin-9-yl)-7-fluorobenzo[b]thiophene-3-carbonitrile], the IC50 at K-Ras G12D is under 100 nM; on K-Ras WT, under 100 nM; in the experiment on SW620 cells, under 5000 nM; with A549 cells it was under 5000 nM; at K-Ras G12S it was under 100 nM; at K-Ras G12V, under 100 nM.

Regarding `COCC1CN(CC(F)F)c2nc(OC[C@@]34CCCN3C[C@H](F)C4)nc3c(F)c(-c4ccc(F)c5sc(N)c(C#N)c45)c(Cl)c(c23)O1` (stereo partly drawn) [Compound 1030, 2-amino-4-(8-chloro-4-(2,2-difluoroethyl)-10-fluoro-2-(((2R,7aS)-2-fluorotetrahydro-1H-pyrrolizin-7a(5H)-yl)methoxy)-6-(methoxymethyl)-5,6-dihydro-4H-[1,4]oxazepino[5,6,7-de]quinazolin-9-yl)-7-fluorobenzo[b]thiophene-3-carbonitrile], the IC50 on K-Ras G12D is under 100 nM; on K-Ras WT, under 100 nM; in the experiment with SW620 cells, under 5000 nM; with A549 cells, under 5000 nM; at K-Ras G12S, under 100 nM; at K-Ras G12V, under 100 nM.

Turning to `N#Cc1c(N)sc2c(F)ccc(-c3c(Cl)c4c5c(nc(OC[C@@]67CCCN6C[C@H](F)C7)nc5c3F)N(C3CC(C#N)C3)CCO4)c12` (stereo partly drawn) [Compound 1043, 2-amino-4-(8-chloro-4-(3-cyanocyclobutyl)-10-fluoro-2-(((2R,7aS)-2-fluorotetrahydro-1H-pyrrolizin-7a(5H)-yl)methoxy)-5,6-dihydro-4H-[1,4]oxazepino[5,6,7-de]quinazolin-9-yl)-7-fluorobenzo[b]thiophene-3-carbonitrile], the half-maximal inhibitory concentration (IC50) at K-Ras G12D is under 100 nM; on K-Ras WT, under 100 nM; with SW620 cells it was under 5000 nM; with A549 cells, under 5000 nM; on K-Ras G12S, under 100 nM; on K-Ras G12V it was under 100 nM.

For the molecule `C[C@H]1CN(C2CC2)c2nc(OC[C@@]34CCCN3C[C@H](F)C4)nc3c(F)c(-c4ccc(F)c5sc(N)c(C#N)c45)c(Cl)c(c23)O1` [Compound 1044, 2-amino-4-((6S)-8-chloro-4-cyclopropyl-10-fluoro-2-(((2R,7aS)-2-fluorotetrahydro-1H-pyrrolizin-7a(5H)-yl)methoxy)-6-methyl-5,6-dihydro-4H-[1,4]oxazepino[5,6,7-de]quinazolin-9-yl)-7-fluorobenzo[b]thiophene-3-carbonitrile], the IC50 was under 100 nM on K-Ras G12D; under 100 nM on K-Ras WT; under 5000 nM with SW620 cells; under 5000 nM with A549 cells; under 100 nM at K-Ras G12S; under 100 nM on K-Ras G12V.
